Test results published in ChEMBL document CHEMBL1201862, “PubChem BioAssay data set” (2004).
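Cultured in 96-well plates, cells were exposed to test compound for 48 hours across five concentrations. GI50 is the concentration that inhibits growth by half.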 Activity calls are given as the source filed them. No stated cut-off is given here; in the data, active = GI50 up to about 1.1 µM and inactive = higher.

How the values were obtained:
Experiment in all cases: NCI-60 cell line screen, 48 h
786-0 = tested on: 786-0
A498 = tested on: A498
ACHN = tested on: ACHN
CAKI-1 = tested on: CAKI-1
CCRF-CEM = tested on: CCRF-CEM
DU-145 = tested on: DU-145
HCT-116 = tested on: HCT-116
KM12 = tested on: KM12
M14 = tested on: M14
MOLT-4 = tested on: MOLT-4
Malme-3M = tested on: Malme-3M
NCI-H460 = tested on: NCI-H460
OVCAR-8 = tested on: OVCAR-8
PC-3 = tested on: PC-3
SF-268 = tested on: SF-268
SK-MEL-28 = tested on: SK-MEL-28
SNB-19 = tested on: SNB-19
SW-620 = tested on: SW-620
UO-31 = tested on: UO-31
SNB-75 = tested on: SNB-75

Row | SMILES | GI50 (786-0) | GI50 (A498) | GI50 (ACHN) | GI50 (CAKI-1) | GI50 (CCRF-CEM) | GI50 (DU-145) | GI50 (HCT-116) | GI50 (KM12) | GI50 (M14) | GI50 (MOLT-4) | GI50 (Malme-3M) | GI50 (NCI-H460) | GI50 (OVCAR-8) | GI50 (PC-3) | GI50 (SF-268) | GI50 (SK-MEL-28) | GI50 (SNB-19) | GI50 (SW-620) | GI50 (UO-31) | GI50 (SNB-75)
1 | CC1(C)COC(c2ccccc2-c2ccccc2)=N1 | > 100 µM (inactive) | > 100 µM (inactive) | > 100 µM (inactive) | 81.3 µM (inactive) | > 100 µM (inactive) | > 100 µM (inactive) | > 100 µM (inactive) | > 100 µM (inactive) | > 100 µM (inactive) | > 100 µM (inactive) | > 100 µM (inactive) | > 100 µM (inactive) | > 100 µM (inactive) | > 100 µM (inactive) | > 100 µM (inactive) | > 100 µM (inactive) | 71.6 µM (inactive) | > 100 µM (inactive) | 67.6 µM (inactive) | –
2 | O=[N+]([O-])c1ccc([I+]c2ccccc2)cc1 | 4.26 µM (inactive) | 2.05 µM (inactive) | 6.43 µM (inactive) | 3.95 µM (inactive) | 2.49 µM (inactive) | 8.93 µM (inactive) | 3.77 µM (inactive) | 5.04 µM (inactive) | 4.29 µM (inactive) | 2.25 µM (inactive) | 4.78 µM (inactive) | 5.52 µM (inactive) | 5.41 µM (inactive) | 5.52 µM (inactive) | 6.61 µM (inactive) | 3.6 µM (inactive) | 5.52 µM (inactive) | 4.49 µM (inactive) | 6.03 µM (inactive) | –
3 | OCC1OC(c2cccc3cc(O)c(O)cc23)CC1O (centres undefined) | > 100 µM (inactive) | > 100 µM (inactive) | > 100 µM (inactive) | – | – | > 100 µM (inactive) | > 100 µM (inactive) | > 100 µM (inactive) | > 100 µM (inactive) | > 100 µM (inactive) | – | 80.7 µM (inactive) | > 100 µM (inactive) | > 100 µM (inactive) | 93.1 µM (inactive) | > 100 µM (inactive) | > 100 µM (inactive) | > 100 µM (inactive) | > 100 µM (inactive) | > 100 µM (inactive)
4 | CN(C)c1ccc(/C=N\NC(=O)CSCC(=O)N/N=C/c2ccc(N(C)C)cc2)cc1 | 55.1 µM (inactive) | – | 43.4 µM (inactive) | 64.1 µM (inactive) | 60.5 µM (inactive) | 51.5 µM (inactive) | 46.9 µM (inactive) | 41.2 µM (inactive) | 33.9 µM (inactive) | 36.6 µM (inactive) | > 100 µM (inactive) | 33.2 µM (inactive) | 53.7 µM (inactive) | 45.2 µM (inactive) | > 100 µM (inactive) | 63.8 µM (inactive) | > 100 µM (inactive) | > 100 µM (inactive) | 30.8 µM (inactive) | 56 µM (inactive)
5 | Cc1cc2c(cc1C)C(=O)/C(=N/Nc1ccc(F)cc1)CCO2 | > 100 µM (inactive) | > 100 µM (inactive) | > 100 µM (inactive) | > 100 µM (inactive) | > 100 µM (inactive) | > 100 µM (inactive) | > 100 µM (inactive) | > 100 µM (inactive) | 87.5 µM (inactive) | > 100 µM (inactive) | 37 µM (inactive) | > 100 µM (inactive) | > 100 µM (inactive) | > 100 µM (inactive) | > 100 µM (inactive) | > 100 µM (inactive) | > 100 µM (inactive) | > 100 µM (inactive) | > 100 µM (inactive) | –
6 | CN(C)/N=N/c1[nH]cnc1C(N)=O [DACARBAZINE] | 87.9 µM (inactive) | – | – | 19 µM (inactive) | 11.6 µM (inactive) | 71.9 µM (inactive) | 38.5 µM (inactive) | 92.7 µM (inactive) | 27.2 µM (inactive) | 20.7 µM (inactive) | 41.5 µM (inactive) | 49.5 µM (inactive) | 44.5 µM (inactive) | > 96.4 µM (inactive) | 63.8 µM (inactive) | 86.5 µM (inactive) | > 99.1 µM (inactive) | 55.1 µM (inactive) | 32.1 µM (inactive) | 35.7 µM (inactive)
7 | COC(=O)/C=C/[C@@H]1[C@H](C)N1S(=O)(=O)c1ccc(C)cc1 (some centres undefined) | 61.4 µM (inactive) | > 100 µM (inactive) | > 100 µM (inactive) | > 100 µM (inactive) | > 100 µM (inactive) | > 100 µM (inactive) | > 100 µM (inactive) | – | > 100 µM (inactive) | > 100 µM (inactive) | > 100 µM (inactive) | > 100 µM (inactive) | > 100 µM (inactive) | > 100 µM (inactive) | > 100 µM (inactive) | > 100 µM (inactive) | > 100 µM (inactive) | > 100 µM (inactive) | – | –
8 | CNC(=O)OC(C)CN1c2ccccc2Sc2ccccc21 (centres undefined) | 64.6 µM (inactive) | > 100 µM (inactive) | 83.8 µM (inactive) | > 100 µM (inactive) | > 100 µM (inactive) | > 100 µM (inactive) | 57.5 µM (inactive) | > 100 µM (inactive) | 64.9 µM (inactive) | 19.1 µM (inactive) | > 100 µM (inactive) | 57.3 µM (inactive) | > 100 µM (inactive) | 8.63 µM (inactive) | > 100 µM (inactive) | > 100 µM (inactive) | > 100 µM (inactive) | > 100 µM (inactive) | > 100 µM (inactive) | –
9 | O=C1NC(=S)N/C1=C\c1ccc(Sc2ccccc2C(=O)O)s1 | > 100 µM (inactive) | > 100 µM (inactive) | > 100 µM (inactive) | 70.3 µM (inactive) | – | > 100 µM (inactive) | > 100 µM (inactive) | > 100 µM (inactive) | – | > 100 µM (inactive) | > 100 µM (inactive) | > 100 µM (inactive) | > 100 µM (inactive) | > 100 µM (inactive) | > 100 µM (inactive) | > 100 µM (inactive) | > 100 µM (inactive) | > 100 µM (inactive) | > 100 µM (inactive) | > 100 µM (inactive)
10 | CCOC(=O)C1(C#N)CC1 | > 100 µM (inactive) | – | > 100 µM (inactive) | > 100 µM (inactive) | > 100 µM (inactive) | > 100 µM (inactive) | > 100 µM (inactive) | > 100 µM (inactive) | > 100 µM (inactive) | > 100 µM (inactive) | > 100 µM (inactive) | > 100 µM (inactive) | > 100 µM (inactive) | > 100 µM (inactive) | > 100 µM (inactive) | > 100 µM (inactive) | > 100 µM (inactive) | > 100 µM (inactive) | > 100 µM (inactive) | > 100 µM (inactive)
11 | COc1ccc2c(c1)CC[C@@H]1C2CC[C@]2(C)OC(=O)CCC12 (some centres undefined) | 5.85 µM (inactive) | 38.6 µM (inactive) | 50.8 µM (inactive) | 31.6 µM (inactive) | 3.6 µM (inactive) | 43.6 µM (inactive) | 8.89 µM (inactive) | 32.2 µM (inactive) | 13.2 µM (inactive) | > 100 µM (inactive) | 15.7 µM (inactive) | 22.7 µM (inactive) | 14 µM (inactive) | 12.6 µM (inactive) | 12.1 µM (inactive) | 16.8 µM (inactive) | 17.4 µM (inactive) | 10.7 µM (inactive) | 17.9 µM (inactive) | –
12 | N=c1[nH]cnc2c1nnn2C1C=CC(COS(N)(=O)=O)C1 (centres undefined) | 2.19 µM (inactive) | – | 4.65 µM (inactive) | 1.25 µM (inactive) | 13.2 µM (inactive) | 7.08 µM (inactive) | 5.24 µM (inactive) | 9.68 µM (inactive) | 7 µM (inactive) | 15.6 µM (inactive) | 15.8 µM (inactive) | 6.87 µM (inactive) | 2.38 µM (inactive) | 3.93 µM (inactive) | 10.7 µM (inactive) | 3.21 µM (inactive) | 4.56 µM (inactive) | 11.6 µM (inactive) | 5.62 µM (inactive) | 4.05 µM (inactive)
13 | CCOC(=O)C1=C(N)N2C(=N[C@H]3CCCC[C@@H]32)N=C1 | > 100 µM (inactive) | > 100 µM (inactive) | > 100 µM (inactive) | > 100 µM (inactive) | – | > 100 µM (inactive) | > 100 µM (inactive) | > 100 µM (inactive) | > 100 µM (inactive) | > 100 µM (inactive) | > 100 µM (inactive) | > 100 µM (inactive) | > 100 µM (inactive) | > 100 µM (inactive) | > 100 µM (inactive) | > 100 µM (inactive) | > 100 µM (inactive) | > 100 µM (inactive) | > 100 µM (inactive) | 38.3 µM (inactive)
14 | N#CC(C#N)/N=N/c1ccc(-c2nc3ccccc3s2)cc1 | 8.36 µM (inactive) | 11.1 µM (inactive) | 3.68 µM (inactive) | 2.81 µM (inactive) | – | 5.79 µM (inactive) | 3.78 µM (inactive) | – | 8.73 µM (inactive) | 1.33 µM (inactive) | 3.15 µM (inactive) | – | 4.37 µM (inactive) | 2.8 µM (inactive) | – | 10.4 µM (inactive) | – | 4.79 µM (inactive) | 7.46 µM (inactive) | 25.9 µM (inactive)
15 | COc1cc(/C=N\N(C)C)cc(/C=N/N(C)C)c1O | 24.4 µM (inactive) | 45.6 µM (inactive) | 21.3 µM (inactive) | 21.1 µM (inactive) | 17.3 µM (inactive) | 68.7 µM (inactive) | 29.8 µM (inactive) | > 100 µM (inactive) | 18.3 µM (inactive) | < 0.01 µM (active) | 10.8 µM (inactive) | 30.1 µM (inactive) | – | 16.4 µM (inactive) | 38.5 µM (inactive) | 19.3 µM (inactive) | 30.6 µM (inactive) | 46.7 µM (inactive) | 22 µM (inactive) | –
